Legend:
Rattus norvegicus [1] = assay: Activity against high density lipoprotein cholesterol level in obese female Zucker rat serum after 1 week at 100 mg/kg (percent change from pre-treatment); format: functional
Hepatocyte = assay: Inhibition of lipid synthesis in primary rat hepatocytes by incorporation radiolabeled acetate into cellular lipids; format: functional, cell-based, Sprague-Dawley; details: Rattus norvegicus, Sprague-Dawley, Hepatocyte; read-out: IC50
Rattus norvegicus [2] = assay: Activity against non high density lipoprotein cholesterol level in obese female Zucker rat serum after 1 week at 100 mg/kg (percent change from pre-treatment); format: functional
Rattus norvegicus [3] = assay: Activity against non high density lipoprotein cholesterol level in obese female Zucker rat serum after 2 weeks at 100 mg/kg (percent change from pre-treatment); format: functional
Rattus norvegicus [4] = assay: Activity against high density lipoprotein cholesterol level in obese female Zucker rat serum after 2 weeks at 100 mg/kg (percent change from pre-treatment); format: functional
Rattus norvegicus [5] = assay: Activity against triglyceride level in obese female Zucker rat serum after 1 week at 100 mg/kg (percent change from pre-treatment); format: functional
Rattus norvegicus [6] = assay: Activity against triglyceride level in obese female Zucker rat serum after 2 weeks at 100 mg/kg (percent change from pre-treatment); format: functional
Rattus norvegicus [7] = assay: AUC (infinity) of the metabolite 2,2,12,12-tetramethyl-7-oxotridecanedioic acid in male Wistar rat administered with the parent compound at 100 mg/kg, po; format: ADME, organism-based, Plasma; design: time infinity, dose 100 mg/kg, route oral; details: in vivo
Rattus norvegicus [8] = assay: Volume of distribution of the metabolite 2,2,12,12-tetramethyl-7-oxotridecanedioic acid in male Wistar rat administered with the parent compound at 100 mg/kg, po; format: ADME, organism-based; design: dose 100 mg/kg, route oral; details: in vivo
Rattus norvegicus [9] = assay: Clearance of the metabolite 2,2,12,12-tetramethyl-7-oxotridecanedioic acid in male Wistar rat administered with the parent compound at 100 mg/kg, po; format: ADME, organism-based; design: dose 100 mg/kg, route oral; details: in vivo
Rattus norvegicus [10] = assay: Half life of the metabolite 7-hydroxy-2,2,12,12-tetramethyltridecanedioic acid in male Wistar rat administered with the parent compound at 100 mg/kg, po; format: ADME, organism-based; design: dose 100 mg/kg, route oral; details: in vivo
Rattus norvegicus [11] = assay: Cmax of the metabolite 7-hydroxy-2,2,12,12-tetramethyltridecanedioic acid in male Wistar rat administered with the parent compound at 100 mg/kg, po; format: ADME, organism-based; design: dose 100 mg/kg, route oral; details: in vivo
Rattus norvegicus [12] = assay: Tmax of the metabolite 7-hydroxy-2,2,12,12-tetramethyltridecanedioic acid in male Wistar rat administered with the parent compound at 100 mg/kg, po; format: ADME, organism-based; design: dose 100 mg/kg, route oral; details: in vivo
Rattus norvegicus [13] = assay: AUC of the metabolite 7-hydroxy-2,2,12,12-tetramethyltridecanedioic acid in male Wistar rat administered with the parent compound at 100 mg/kg, po; format: ADME, organism-based, Plasma; design: dose 100 mg/kg, route oral; details: in vivo
Rattus norvegicus [14] = assay: AUC (infinity) of the metabolite 7-hydroxy-2,2,12,12-tetramethyltridecanedioic acid in male Wistar rat administered with the parent compound at 100 mg/kg, po; format: ADME, organism-based, Plasma; design: time infinity, dose 100 mg/kg, route oral; details: in vivo
Rattus norvegicus [15] = assay: Volume of distribution of the metabolite 7,13-dihydroxy-2,2,12,12-tetramethyltridecanoic acid in male Wistar rat administered with the parent compound at 100 mg/kg, po; format: ADME, organism-based; design: dose 100 mg/kg, route oral; details: in vivo
Rattus norvegicus [16] = assay: Clearance of the metabolite 7,13-dihydroxy-2,2,12,12-tetramethyltridecanoic acid in male Wistar rat administered with the parent compound at 100 mg/kg, po; format: ADME, organism-based; design: dose 100 mg/kg, route oral; details: in vivo
Rattus norvegicus [17] = assay: Half life of the metabolite 2,2,12,12-tetramethyl-7-oxotridecanedioic acid in male Wistar rat administered with the parent compound at 100 mg/kg, po; format: ADME, organism-based; design: dose 100 mg/kg, route oral; details: in vivo
Rattus norvegicus [18] = assay: Tolerability of compound upto 2000 mg/kg; format: organism-based; design: dose 2000 mg/kg; details: in vivo
Rattus norvegicus [19] = assay: Clearance of the metabolite 13-hydroxy-2,2,12,12-tetramethyl-7-oxotridecanoic acid in male Wistar rat administered with the parent compound at 100 mg/kg, po; format: ADME, organism-based; design: dose 100 mg/kg, route oral; details: in vivo
Rattus norvegicus [20] = assay: Half life of the metabolite 7,13-dihydroxy-2,2,12,12-tetramethyltridecanoic acid in male Wistar rat administered with the parent compound at 100 mg/kg, po; format: ADME, organism-based; design: dose 100 mg/kg, route oral; details: in vivo
Rattus norvegicus [21] = assay: Cmax of the metabolite 7,13-dihydroxy-2,2,12,12-tetramethyltridecanoic acid in male Wistar rat administered with the parent compound at 100 mg/kg, po; format: ADME, organism-based; design: dose 100 mg/kg, route oral; details: in vivo
Rattus norvegicus [22] = assay: Tmax of the metabolite 7,13-dihydroxy-2,2,12,12-tetramethyltridecanoic acid in male Wistar rat administered with the parent compound at 100 mg/kg, po; format: ADME, organism-based; design: dose 100 mg/kg, route oral; details: in vivo
Rattus norvegicus [23] = assay: AUC of the metabolite 7,13-dihydroxy-2,2,12,12-tetramethyltridecanoic acid in male Wistar rat administered with the parent compound at 100 mg/kg, po; format: ADME, organism-based, Plasma; design: dose 100 mg/kg, route oral; details: in vivo
Rattus norvegicus [24] = assay: AUC (infinity) of the metabolite 7,13-dihydroxy-2,2,12,12-tetramethyltridecanoic acid in male Wistar rat administered with the parent compound at 100 mg/kg, po; format: ADME, organism-based, Plasma; design: time infinity, dose 100 mg/kg, route oral; details: in vivo
Rattus norvegicus [25] = assay: Cmax of the metabolite 2,2,12,12-tetramethyl-7-oxotridecanedioic acid in male Wistar rat administered with the parent compound at 100 mg/kg, po; format: ADME, organism-based; design: dose 100 mg/kg, route oral; details: in vivo
Rattus norvegicus [26] = assay: Tmax of the metabolite 2,2,12,12-tetramethyl-7-oxotridecanedioic acid in male Wistar rat administered with the parent compound at 100 mg/kg, po; format: ADME, organism-based; design: dose 100 mg/kg, route oral; details: in vivo
Rattus norvegicus [27] = assay: AUC of the metabolite 2,2,12,12-tetramethyl-7-oxotridecanedioic acid in male Wistar rat administered with the parent compound at 100 mg/kg, po; format: ADME, organism-based, Plasma; design: dose 100 mg/kg, route oral; details: in vivo
Rattus norvegicus [28] = assay: AUC of the metabolite 13-hydroxy-2,2,12,12-tetramethyl-7-oxotridecanoic acid in male Wistar rat administered with the parent compound at 100 mg/kg, po; format: ADME, organism-based, Plasma; design: dose 100 mg/kg, route oral; details: in vivo
Rattus norvegicus [29] = assay: AUC (infinity) of the metabolite 13-hydroxy-2,2,12,12-tetramethyl-7-oxotridecanoic acid in male Wistar rat administered with the parent compound at 100 mg/kg, po; format: ADME, organism-based, Plasma; design: time infinity, dose 100 mg/kg, route oral; details: in vivo
Rattus norvegicus [30] = assay: Volume of distribution of the metabolite 13-hydroxy-2,2,12,12-tetramethyl-7-oxotridecanoic acid in male Wistar rat administered with the parent compound at 100 mg/kg, po; format: ADME, organism-based; design: dose 100 mg/kg, route oral; details: in vivo
Rattus norvegicus [31] = assay: Volume of distribution of the metabolite 7-hydroxy-2,2,12,12-tetramethyltridecanedioic acid in male Wistar rat administered with the parent compound at 100 mg/kg, po; format: ADME, organism-based; design: dose 100 mg/kg, route oral; details: in vivo
Rattus norvegicus [32] = assay: Clearance of the metabolite 7-hydroxy-2,2,12,12-tetramethyltridecanedioic acid in male Wistar rat administered with the parent compound at 100 mg/kg, po; format: ADME, organism-based; design: dose 100 mg/kg, route oral; details: in vivo
Rattus norvegicus [33] = assay: Half life of the metabolite 13-hydroxy-2,2,12,12-tetramethyl-7-oxotridecanoic acid in male Wistar rat administered with the parent compound at 100 mg/kg, po; format: ADME, organism-based; design: dose 100 mg/kg, route oral; details: in vivo
Rattus norvegicus [34] = assay: Cmax of the metabolite 13-hydroxy-2,2,12,12-tetramethyl-7-oxotridecanoic acid in male Wistar rat administered with the parent compound at 100 mg/kg, po; format: ADME, organism-based; design: dose 100 mg/kg, route oral; details: in vivo
Rattus norvegicus [35] = assay: Tmax of the metabolite 13-hydroxy-2,2,12,12-tetramethyl-7-oxotridecanoic acid in male Wistar rat administered with the parent compound at 100 mg/kg, po; format: ADME, organism-based; design: dose 100 mg/kg, route oral; details: in vivo
Rattus norvegicus [36] = assay: Tolerability of compound upto 5000 mg/kg; format: ADME, organism-based; design: dose 5000 mg/kg; details: in vivo
[37] = Half life in male Wistar rat at 100 mg/kg, po; format: ADME, organism-based; design: dose 100 mg/kg, route oral; details: in vivo
[38] = Cmax in male Wistar rat at 100 mg/kg, po; format: ADME, organism-based; design: dose 100 mg/kg, route oral; details: in vivo
[39] = Tmax in male Wistar rat at 100 mg/kg, po; format: ADME, organism-based; design: dose 100 mg/kg, route oral; details: in vivo
[40] = AUC in male Wistar rat at 100 mg/kg, po; format: ADME, organism-based; design: dose 100 mg/kg, route oral; details: plasma
[41] = AUC (infinity) in male Wistar rat at 100 mg/kg, po; format: ADME, organism-based; design: time infinity, dose 100 mg/kg, route oral; details: plasma
Rattus norvegicus [42] = assay: Volume of distribution in male Wistar rat at 100 mg/kg, po; format: ADME, organism-based; design: dose 100 mg/kg, route oral; details: in vivo
[43] = Clearance in male Wistar rat at 100 mg/kg, po; format: ADME, organism-based; design: dose 100 mg/kg, route oral; details: in vivo

Compound: CC(C)(CO)CCCCC(=O)CCCCC(C)(C)CO
- Activity (Rattus norvegicus [1]): 111%
- IC50 (Hepatocyte): 1.5 µM
- Activity (Rattus norvegicus [2]): -23%
- Activity (Rattus norvegicus [3]): -10%
- Activity (Rattus norvegicus [4]): 126%
- Activity (Rattus norvegicus [5]): -54%
- Activity (Rattus norvegicus [6]): -29%
- AUC (Rattus norvegicus [7]): 344.9 µg·h/mL
- Vdss (Rattus norvegicus [8]): 5.6319 L/kg
- CL (Rattus norvegicus [9]): 86.8 mL/h
- T1/2 (Rattus norvegicus [10]): 16.9 h
- Cmax (Rattus norvegicus [11]): 40600 ng/mL
- Tmax (Rattus norvegicus [12]): 6 h
- AUC (Rattus norvegicus [13]): 703.3 µg·h/mL
- AUC (Rattus norvegicus [14]): 1176.1 µg·h/mL
- Vdss (Rattus norvegicus [15]): 1.5332 L/kg
- CL (Rattus norvegicus [16]): 69 mL/h
- T1/2 (Rattus norvegicus [17]): 13.5 h
- Activity (Rattus norvegicus [18]): Active
- CL (Rattus norvegicus [19]): 747.9 mL/h
- T1/2 (Rattus norvegicus [20]): 3.1 h
- Cmax (Rattus norvegicus [21]): 21400 ng/mL
- Tmax (Rattus norvegicus [22]): 6 h
- AUC (Rattus norvegicus [23]): 289.9 µg·h/mL
- AUC (Rattus norvegicus [24]): 291.6 µg·h/mL
- Cmax (Rattus norvegicus [25]): 14900 ng/mL
- Tmax (Rattus norvegicus [26]): 6 h
- AUC (Rattus norvegicus [27]): 230.3 µg·h/mL
- AUC (Rattus norvegicus [28]): 26.7 µg·h/mL
- AUC (Rattus norvegicus [29]): 26.8 µg·h/mL
- Vdss (Rattus norvegicus [30]): 13.6709 L/kg
- Vdss (Rattus norvegicus [31]): 2.0721 L/kg
- CL (Rattus norvegicus [32]): 28.4 mL/h
- T1/2 (Rattus norvegicus [33]): 2.5 h
- Cmax (Rattus norvegicus [34]): 2000 ng/mL
- Tmax (Rattus norvegicus [35]): 0.5 h

Compound: CC(C)(CO)CCCCSCCCCC(C)(C)CO
- Activity (Rattus norvegicus [1]): 141%
- IC50 (Hepatocyte): 18 µM
- Activity (Rattus norvegicus [2]): -11%
- Activity (Rattus norvegicus [3]): 9%
- Activity (Rattus norvegicus [4]): 153%
- Activity (Rattus norvegicus [5]): -37%
- Activity (Rattus norvegicus [6]): -56%
- Activity (Rattus norvegicus [36]): Active

Compound: CC(C)(CCCCC(O)CCCCC(C)(C)C(=O)O)C(=O)O
- Activity (Rattus norvegicus [1]): 57%
- IC50 (Hepatocyte): 4.7 µM
- Activity (Rattus norvegicus [2]): -6%
- Activity (Rattus norvegicus [3]): -41%
- Activity (Rattus norvegicus [4]): 50%
- Activity (Rattus norvegicus [5]): -32%
- Activity (Rattus norvegicus [6]): -59%
- half-life [37]: 16.9 h
- Cmax [38]: 40600 ng/mL
- Tmax [39]: 6 h
- AUC [40]: 703 µg·h/mL
- AUC(0-inf) [41]: 1180 µg·h/mL
- Vdss (Rattus norvegicus [42]): 2.0721 L/kg
- CL/F [43]: 0.473 mL/min
